Values of other authors as cited in patent US10227338B2, “Substituted benzenesulfonamides as sodium channel blockers” (Daewoong Pharmaceutical Co., Ltd., priority 2015, dated 2019).

Test system: neuropathic pain

NCC1(CC(=O)O)CCCCC1 [gabapentin]
effective for % of the patients: 60%
